Test results taken from patent publication US20060149045A1, “Steroid compounds with anti-tumor activity” (priority 2002, published 2006).

What was measured:
[1] = tested on: six human cancer cell lines (Hs683, U-373 MG, HCT-15, LoVo, A549, J82); experiment: MTT test, summary over the six cell lines; assay type: cell-based; conditions: for cytotoxic / anti-tumor activity on the 6 tested cell lines: result in words, FIGS. 3, 4 and 6
Description: In order to characterize the in vitro activities of the compounds according to the invention, MTT tests were carried out. The MTT test, which is a well-known test in the art, is an indirect technique that rapidly measures, i.e. within 5 days, the effect of a given product on the overall cell growth. This test measures the number of metabolically active living cells that are able to transform the MTT product (3-(4,5-dimethylthiazol-2-yl)-2,5 diphenyl tetrazolium bromide), having a yellowish color, to the blue product formazan dye by mitochondrial reduction. The amount of formazan obtained at the end of the experiment is measured with a spectrophotometer and is directly proportional to the number of living cells. Determination of the optical density enables a quantitative measurement of the effect of the investigated compounds as compared to the control condition (untreated cells) and to compare it to other reference compound. In the following examples different compounds according to the invention were tested and compared to the reference compound being UBS881.
Six human cancer cell lines, described in Table D, were tested in the presence of the extract according to the invention. These cell lines represent four histological cancer types, being glioma cancer (cell line Hs683 and U-373 MG), colon cancer (cell lineHCT-15 and LoVo), lung cancer (cell line A549) and bladder cancer (cell line J82). […]
After 72 hours of incubation at 37° C. with the compound (experimental conditions) or without the compound (control condition), the medium was replaced by 100 μl MTT at the concentration of 1 mg/ml dissolved in RPMI. […] The micro wells were shaken for 5 minutes and read on a spectrophotometer at the wavelengths of 570 nm corresponding to the maximum formazan absorbance wavelength, and of 630 nm, which is the background noise wavelength.
For each experimental condition, the mean OD associated with the SEM (standard error of the mean) for each condition (6 wells) was calculated. The percentage of remaining living cells in comparison with the control was calculated. […]

A549 (lung cancer) cells = experiment: Cell migration, phase-contrast video microscopy; assay type: cell-based, human
Description: (§1) Cells of different cancer lines, i.e. U-373 MG (Glioma cancer), Hs578T (breast cancer) and A549 (lung cancer) were seeded on culture flask 48 hours before the migration experiment. On the test day, cells were treated with or without compounds UBS881, UBS1664, UBS3285, UBS3327 and UBS3328 in closed Falcon dishes containing a buffered medium at a controlled temperature (37.0±0.1° C.) for 12 or 24 hours. The compounds were administered at two non-cytotoxic concentrations (10^−6 M and 10^−7 M) for UBS881 and UBS1664, and at 4 concentrations (10^−7 M to 10^−10 M) for UBS3285, UBS3327 and UBS3328. Migration of the cells was observed by means of a CCD-camera mounted on a phase-contrast microscope. A statistical analyse of the migration, with the non-parametric Mann-Whitney test, was established for 25% of the most motile cells and for the entire cell population for UBS881 and UBS1664, and established for 25%-50% of the most motile cells and for the entire cell population for UBS3285, UBS3327 and UBS3328 compounds. The table F below illustrates the anti-migratory effect of the compound according to the invention.

[2] = tested on: U-373 MG (Glioma cancer) cells; experiment: Cell migration, phase-contrast video microscopy; assay type: cell-based, human
Description: as §1

[3] = tested on: U-373 MG, Hs578T and/or A549 cancer cells; experiment: Cell migration, summary over the cell lines; assay type: cell-based; conditions: at the weak studied concentrations; result in words
Description: as §1

[4] = tested on: Hs578T (breast cancer) cells; experiment: Cell migration, phase-contrast video microscopy; assay type: cell-based; conditions: for 24 hours on the 25% of most motile cells, at 10^−7 M
Description: as §1

[5] = for 24 hours on the 25% of most motile cells, at 10^−7 M

COc1ccc(OC)c(C2CC3C4CC(=O)C5=CC(=O)CCC5(C)C4CCC3(C)C2C(C)=O)c1 (centres unmarked) [UBS1664]
cytotoxic / anti-tumor activity on the 6 tested cell lines [1]: induced cytotoxic activity on all 6 tested cell lines | Max. effects (anti-migratory effect) (A549 (lung cancer) cells; for 12 hours on the entire cell population, at 10^−7 M): −15%/p < 0.05 | Max. effects (anti-migratory effect) [2, 5]: −27%/p < 0.001 | migration level of cancer cells [3]: induced a decrease in the migration level

COc1ccc(OC)c(C(C)(O)C2CCC3C4CC=C5CC(O)CCC5(C)C4CCC32C)c1 (centres unmarked) [UBS1740]
cytotoxic / anti-tumor activity on the 6 tested cell lines [1]: Hs683 and A549 cell lines were most sensitive

COc1ccc(OC)c(C(C)(O)C2CCC3C4CC(=O)C5=CC(=O)CCC5(C)C4CCC32C)c1 (centres unmarked) [UBS1819]
IC50 ([1]; Homo sapiens, 72 hours incubation, range over all 6 cell lines): 10 to 50 µM

COc1ccc(OC)c(C2CC3C4CC=C5CC(OC6O[C@H](CO)[C@H](O)[C@H](O)[C@H]6O)CCC5(C)C4CCC3(C)C2C(C)=O)c1 (some centres unmarked) [UBS3285]
Max. effects (anti-migratory effect) ([2]; for 24 hours on the 50% of most motile cells, at 10^−8 M): −22%/p < 0.001 | migration level of cancer cells [3]: induced a decrease in the migration level

COc1ccc(OC)c(C2CC3C4CC=C5CC(OC6O[C@H](CO)[C@@H](O[C@@H]7O[C@H](CO)[C@@H](O)[C@H](O)[C@H]7O)[C@H](O)[C@H]6O)CCC5(C)C4CCC3(C)C2C(C)=O)c1 (some centres unmarked) [UBS3327]
Max. effects (anti-migratory effect) (A549 (lung cancer) cells; for 24 hours on the 25% of most motile cells, at 10^−8 M): −34%/p < 0.001 | Max. effects (anti-migratory effect) [4]: −21%/p < 0.001 | migration level of cancer cells [3]: induced a decrease in the migration level

COc1ccc(OC)c(C2CC3C4CC=C5CC(OC6O[C@H](CO[C@@H]7O[C@H](CO)[C@@H](O)[C@H](O)[C@H]7O)[C@@H](O)[C@H](O)[C@H]6O)CCC5(C)C4CCC3(C)C2C(C)=O)c1 (some centres unmarked) [UBS3328]
Max. effects (anti-migratory effect) (A549 (lung cancer) cells; [5]): −40%/p < 0.001 | Max. effects (anti-migratory effect) ([2]; for 12 hours on the entire cell population, at 10^−10 M): −27%/p < 0.001 | migration level of cancer cells [3]: induced a decrease in the migration level
